Measurements published in patent US8992897B2, “Skin lightening compositions” (ELC Management LLC, priority 2010, dated 2015).
Where two headings read alike, the source gives them in different places.

Columns and labels:
B16F10 melanoma cells [1] = assay: pH change in B16F10 melanoma cells by DAMP accumulation / FITC anti-DNP fluorescence; assay type: cell-based, mouse
Method: The protocol to detect changes in pH followed that of Cheli, Y. et al. B16F10 melanoma cells were seeded in glass bottom dishes and maintained in DMEM medium with 10% FBS. […] Cells were washed with fresh culture medium and incubated for 20 minutes in the presence of 30 μM DAMP ([3-(2,4-dinitroanilino)3′amino-N-methyldipropylamine], a weak base which accumulates in acidic compartments). Cells were fixed in 3% PFA for 20 minutes at room temperature. The glass bottom dishes were washed with PBS, incubated 10 minutes in NH4Cl//PBS at room temperature and permeabilized in PBS with 0.1% Triton-100 for two minutes on ice. The dishes were then incubated with a green reflecting fluoroscein isothiocyanate (FITC)-labeled rabbit anti-dinitrophenyl (DNP) antibody (1/50 PBS plus 1% BSA) for one hours at 37° C. The intensity of fluorescence indicated the accumulation of DAMP. Increased intensity of the fluorescence can be related to lowered pH. (Cheli, Y., Luciani, F., Khaled, M., Beuret, L., Billie, K., Gounon, Pl, Ortonne, J. P., Bertolotto, C., and Ballotti, R. Alpha-MSH and cyclic-AMP elevating agents control melanosome pH through a PKA-independent mechanism. J. Biol. Chem., 284:18699-18706, 2009).
It has been previously shown that forskolin induces an alkalinization of the melanosome milieu.

tyrosinase mRNA = assay: Tyrosinase mRNA level by RT-PCR in B16F10 cells; conditions: B16F10 mouse melanoma cells
human tyrosinase = target: T1, human tyrosinase (Homo sapiens, UniProt P14679); conditions: test tube assay, extracts from human melanocytes
T1 sequence (P14679 19-529): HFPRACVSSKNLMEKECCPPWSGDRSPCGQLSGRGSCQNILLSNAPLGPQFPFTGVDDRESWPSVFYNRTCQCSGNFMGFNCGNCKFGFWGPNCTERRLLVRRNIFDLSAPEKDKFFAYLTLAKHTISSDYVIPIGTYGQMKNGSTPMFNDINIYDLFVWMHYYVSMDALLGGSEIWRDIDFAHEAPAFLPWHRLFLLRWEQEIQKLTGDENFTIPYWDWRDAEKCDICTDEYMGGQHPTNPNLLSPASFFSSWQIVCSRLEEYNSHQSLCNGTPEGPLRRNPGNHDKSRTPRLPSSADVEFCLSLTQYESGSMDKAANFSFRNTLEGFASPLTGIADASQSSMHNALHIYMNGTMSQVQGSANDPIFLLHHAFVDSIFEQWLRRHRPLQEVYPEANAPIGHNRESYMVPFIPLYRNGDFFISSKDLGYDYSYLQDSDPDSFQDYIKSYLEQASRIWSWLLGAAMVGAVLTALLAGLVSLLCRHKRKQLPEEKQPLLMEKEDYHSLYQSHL

cultured melanocytes = assay: Inhibition of melanogenesis in cultured melanocytes
B16F10 melanoma cells [2] = assay: Melanin content of B16F10 melanoma cells (screening for inhibition of melanogenesis)
Method: B16F10 melanoma cells were incubated for three days with test compounds at various concentrations. The cells were fixed, dried and solubilized, and the melanin content was determined.

MITF mRNA = MITF mRNA level by RT-PCR in B16F10 cells; conditions: B16F10 mouse melanoma cells
mouse tyrosinase = assay: Tyrosinase protein level by Western blot; conditions: Western blots, antibodies specific for mouse tyrosinase
tyrosinase = target: T2, tyrosinase (Mus musculus, UniProt P11344); assay: Tyrosinase activity of B16F10 cell extracts with L-DOPA as substrate
T2 sequence (P11344 19-533): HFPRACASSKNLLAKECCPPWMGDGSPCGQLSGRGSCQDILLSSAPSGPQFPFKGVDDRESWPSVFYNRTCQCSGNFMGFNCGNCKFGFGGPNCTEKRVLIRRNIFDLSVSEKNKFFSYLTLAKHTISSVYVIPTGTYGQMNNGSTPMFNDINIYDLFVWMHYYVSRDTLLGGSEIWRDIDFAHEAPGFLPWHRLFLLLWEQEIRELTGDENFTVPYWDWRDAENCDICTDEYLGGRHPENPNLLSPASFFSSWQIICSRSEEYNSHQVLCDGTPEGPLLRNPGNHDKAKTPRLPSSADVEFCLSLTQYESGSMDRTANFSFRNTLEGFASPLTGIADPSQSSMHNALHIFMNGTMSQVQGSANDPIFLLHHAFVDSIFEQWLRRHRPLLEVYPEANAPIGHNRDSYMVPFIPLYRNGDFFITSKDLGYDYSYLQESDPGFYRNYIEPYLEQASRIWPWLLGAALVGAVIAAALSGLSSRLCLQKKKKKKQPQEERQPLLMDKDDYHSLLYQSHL

skin = conditions: 4% hydroquinone, another study

Molecule: C=C[C@@]1(C)CC(=O)[C@]2(O)[C@@]3(C)[C@@H](O)CCC(C)(C)[C@@H]3[C@H](O)[C@H](OC(C)=O)[C@@]2(C)O1 [Forskolin]
- Average fluorescence per cell ± S.D. (B16F10 melanoma cells [1]; 24 hour incubation, 20 μM): 87 ± 15.1

Molecule: 5- or 6-methoxy-2-{[(4-methoxy-3,5-dimethylpyridin-2-yl)methyl]sulfinyl}-1H-benzimidazole [omeprazole]
- lowering the pH of melanoma cells (in words) (B16F10 melanoma cells [1]; 25 μM and 50 μM, after 4 hours of treatment): effective at lowering the pH
- Average fluorescence per cell ± S.D. (B16F10 melanoma cells [1]; 4 hour incubation (first experiment), 50 μM): 145.5 ± 14.5
- Average fluorescence per cell ± S.D. (B16F10 melanoma cells [1]; 4 hour incubation (second experiment), 25 μM): 124.3 ± 2.5
- Average fluorescence per cell ± S.D. (B16F10 melanoma cells [1]; 4 hour incubation (second experiment), 50 μM): 133.7 ± 13.3
- Average fluorescence per cell ± S.D. (B16F10 melanoma cells [1]; 24 hour incubation, 50 μM): 139.3 ± 14.4
- Fluorescence intensity / DAMP labeling (in words) (B16F10 melanoma cells [1]; exposure of cells for 24 hours): increased
- tyrosinase mRNA level (tyrosinase mRNA): does not change
- concentration required to moderately inhibit human tyrosinase activity (human tyrosinase): 250 µg/mL
- effective concentration to inhibit melanogenesis (cultured melanocytes): 5 to 50 µg/mL
- cytotoxicity (B16F10 melanoma cells [2]; B16F10 melanoma cells): without cytotoxicity
- inhibition of melanin synthesis (B16F10 melanoma cells [2]; B16F10 melanoma cells): inhibits melanin synthesis
- reducing melanin in the cells (melanin content) (B16F10 melanoma cells [2]; B16F10 melanoma cells incubated three days with test compounds at various concentrations): one of the compounds most potent in reducing melanin
- MITF mRNA level (MITF mRNA): does not change
- tyrosinase protein level (mouse tyrosinase): decreases tyrosinase protein level
- tyrosinase activity of B16F10 cell extracts (tyrosinase): decreases the tyrosinase activity

Molecule: Cc1nc2c(OCc3ccccc3)cccn2c1CC#N [SCH-28080, 2-methyl-8-(phenylmethoxy) imidazo (1,2a) pyridine-3-acetonitrile]
- inhibition of melanogenesis (B16F10 melanoma cells [2]; cultured B16F10 mouse melanoma cells (routine screening)): equally as efficient as omeprazole

Molecule: Oc1ccc(O)cc1 [hydroquinone]
- lightening factor (skin; 3 weeks of treatment): 3.2
- lightening factor (skin; 4 weeks of treatment): 5.0
